Test system: mice
Assay: Acute toxicity (LD50) on mice
Conditions: i.p.

Row | Molecule | Acute toxicity [LD50] on mice
1 | Fumaric acid [reference compound] | 80 mg/kg

Test system: not listed separately
Assay: Acute toxicity (LD50) on mice
Conditions: mouse, in vivo, po

Row | Molecule | LD50
2 | CCOC(=O)CC(C)=NNc1ccc(Cl)nn1 [Example 20, 3-(Ethoxycarbonyl)-2-propylidene-(3-chloro-6-pyridazinyl)hydrazone] | 530 mg/kg
3 | CCOC(=O)C1CCCCC1=NNc1ccc(Cl)nn1 (centres unmarked) [Example 17, 2-(Ethoxycarbonyl)-1-cyclohexylidene-3-chloro-6-pyridazinylhydrazone] | 300 mg/kg
4 | O=C(O)C1CCCCC1=NNc1cccnn1 (centres unmarked) [Example 19, 2-carboxy-1-cyclohexylidene-3-pyridazinylhydrazone] | > 200 mg/kg

Biological target: T1, tyrosine-hydroxylase (Rattus norvegicus, UniProt P04177)
T1 construct: on rat adrenal homogenate; from tissue; host or cells: rat adrenal homogenate
T1 sequence (P04177 whole entry): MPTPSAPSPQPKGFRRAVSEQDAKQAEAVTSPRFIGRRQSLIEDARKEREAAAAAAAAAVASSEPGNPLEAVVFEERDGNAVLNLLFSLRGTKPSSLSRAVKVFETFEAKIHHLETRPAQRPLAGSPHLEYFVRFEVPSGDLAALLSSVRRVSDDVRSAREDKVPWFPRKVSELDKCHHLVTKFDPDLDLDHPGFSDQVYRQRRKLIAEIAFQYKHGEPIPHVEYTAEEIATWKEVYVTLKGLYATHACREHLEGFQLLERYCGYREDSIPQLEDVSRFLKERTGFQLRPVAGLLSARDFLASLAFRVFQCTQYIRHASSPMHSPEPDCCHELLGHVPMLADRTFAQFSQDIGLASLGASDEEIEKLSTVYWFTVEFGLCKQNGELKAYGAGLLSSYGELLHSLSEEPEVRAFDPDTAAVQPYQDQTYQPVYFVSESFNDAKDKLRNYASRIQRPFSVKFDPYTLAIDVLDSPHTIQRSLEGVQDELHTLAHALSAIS
Assay: In vitro tyrosine-hydroxylase inhibiting activity (TH) on rat adrenal homogenate
Assay type: biochemical
Conditions: 10^-4 mole/liter; read-out: Enzyme inhibiting activity, TH
Method: In vitro tyrosine-hydroxylase inhibiting activity (TH inhibiting activity) of the new compounds according to the invention was tested by the method of Nagatsu [Anal. Biochem., 9, 122 (1964)] on rat adrenal homogenate. Radioactive tyrosine was purified by the method elaborated by Ikeda [J. Biol. Chem., 241, 4452 (1966)]. TH activity of the rat adrenal homogenate amounted to […] nmoles/mg protein/60 min.
(§1) Inhibiting effect of several compounds encompassed by the formula I in comparison with some known compounds is listed in the following Table I.

Row | Molecule | inhibition at 100 µM
5 | CCOC(=O)CC(C)=NNc1ccc(Cl)nn1 [Example 20, 3-(Ethoxycarbonyl)-2-propylidene-(3-chloro-6-pyridazinyl)hydrazone] | 100%
6 | CCOC(=O)C1CCCCC1=NNc1ccc(Cl)nn1 (centres unmarked) [Example 17, 2-(Ethoxycarbonyl)-1-cyclohexylidene-3-chloro-6-pyridazinylhydrazone] | 85%
7 | O=C(O)C1CCCCC1=NNc1cccnn1 (centres unmarked) [Example 19, 2-carboxy-1-cyclohexylidene-3-pyridazinylhydrazone] | 82%

Same assay, conditions: 10^-5 mole/liter; read-out: Enzyme inhibiting activity, TH

Row | Molecule | inhibition at 10 µM
8 | CCOC(=O)CC(C)=NNc1ccc(Cl)nn1 [Example 20, 3-(Ethoxycarbonyl)-2-propylidene-(3-chloro-6-pyridazinyl)hydrazone] | 50%
9 | CCOC(=O)C1CCCCC1=NNc1ccc(Cl)nn1 (centres unmarked) [Example 17, 2-(Ethoxycarbonyl)-1-cyclohexylidene-3-chloro-6-pyridazinylhydrazone] | 33%
10 | O=C(O)C1CCCCC1=NNc1cccnn1 (centres unmarked) [Example 19, 2-carboxy-1-cyclohexylidene-3-pyridazinylhydrazone] | 30%

Biological target: T2, dopamine-β-hydroxylase (Bos taurus, UniProt P15101)
T2 construct: from tissue; host or cells: bovine adrenal (gland) preparations
T2 sequence (P15101 1-610): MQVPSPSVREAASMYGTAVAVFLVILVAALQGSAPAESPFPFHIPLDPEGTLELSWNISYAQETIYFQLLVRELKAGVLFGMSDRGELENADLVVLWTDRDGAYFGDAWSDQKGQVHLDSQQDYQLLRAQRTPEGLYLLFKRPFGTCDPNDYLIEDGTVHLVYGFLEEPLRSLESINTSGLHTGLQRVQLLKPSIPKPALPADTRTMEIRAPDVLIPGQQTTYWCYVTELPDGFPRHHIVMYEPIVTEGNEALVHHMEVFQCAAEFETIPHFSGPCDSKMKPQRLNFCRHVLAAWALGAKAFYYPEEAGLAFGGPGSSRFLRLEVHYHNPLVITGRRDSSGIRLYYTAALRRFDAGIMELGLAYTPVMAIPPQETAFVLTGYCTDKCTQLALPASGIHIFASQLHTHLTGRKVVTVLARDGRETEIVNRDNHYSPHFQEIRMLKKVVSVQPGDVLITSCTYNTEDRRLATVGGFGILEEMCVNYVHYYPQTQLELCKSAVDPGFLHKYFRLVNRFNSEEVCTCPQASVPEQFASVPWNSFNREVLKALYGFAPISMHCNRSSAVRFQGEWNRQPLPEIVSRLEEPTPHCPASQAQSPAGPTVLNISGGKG
Assay: Dopamine-β-hydroxylase inhibiting activity (DBH) on bovine adrenal (gland) preparations
Assay type: biochemical
Conditions: 10^-4 mole/liter; read-out: Enzyme inhibiting activity, DBH
Method: Dopamine-β-hydroxylase inhibiting activity (DBH inhibiting activity) of the compounds according to the invention was tested on bovine adrenal (gland) preparations by a modified version of Nagatsu's method [B.B. Acta, 139 319 (1967)].
as §1

Row | Molecule | inhibition at 100 µM
11 | CCOC(=O)CC(C)=NNc1ccc(Cl)nn1 [Example 20, 3-(Ethoxycarbonyl)-2-propylidene-(3-chloro-6-pyridazinyl)hydrazone] | 100%
12 | CCOC(=O)C1CCCCC1=NNc1ccc(Cl)nn1 (centres unmarked) [Example 17, 2-(Ethoxycarbonyl)-1-cyclohexylidene-3-chloro-6-pyridazinylhydrazone] | 70%
13 | O=C(O)C1CCCCC1=NNc1cccnn1 (centres unmarked) [Example 19, 2-carboxy-1-cyclohexylidene-3-pyridazinylhydrazone] | 75%

Same assay, conditions: 10^-5 mole/liter; read-out: Enzyme inhibiting activity, DBH

Row | Molecule | inhibition at 10 µM
14 | CCOC(=O)CC(C)=NNc1ccc(Cl)nn1 [Example 20, 3-(Ethoxycarbonyl)-2-propylidene-(3-chloro-6-pyridazinyl)hydrazone] | 87%
15 | CCOC(=O)C1CCCCC1=NNc1ccc(Cl)nn1 (centres unmarked) [Example 17, 2-(Ethoxycarbonyl)-1-cyclohexylidene-3-chloro-6-pyridazinylhydrazone] | 10%
16 | O=C(O)C1CCCCC1=NNc1cccnn1 (centres unmarked) [Example 19, 2-carboxy-1-cyclohexylidene-3-pyridazinylhydrazone] | 10%

Test system: spontaneous hypertensive rats (Wistar-Okamoto rats)
Assay: Blood pressure lowering activity, systolic blood pressure of waking spontaneous hypertensive rats, oral
Assay type: in vivo, rat
Conditions: 4 hours, 50 mg/kg, oral
Method: Blood pressure lowering activity of the new compounds according to the invention was tested on spontaneous hypertensive rats (Wistar-Okamoto rats) following the method described in Arzn. Forsch., 6, 222 (1956). Systolic blood pressure of waking animals was measured in arteria caudalis 4, 24, 48 and 72 hours after the oral administration of the test compounds.

Row | Molecule | Reduction in blood pressure
17 | Fumaric acid [reference compound] | -33%

Same assay, conditions: 24 hours, 50 mg/kg, oral

Row | Molecule | Reduction in blood pressure
18 | Fumaric acid [reference compound] | 0%

Same assay, conditions: Rattus norvegicus; 4 hours, 50 mg/kg, oral; read-out: Reduction in blood pressure

Row | Molecule | change in vivo at 50 mg/kg
19 | CCOC(=O)CC(C)=NNc1ccc(Cl)nn1 [Example 20, 3-(Ethoxycarbonyl)-2-propylidene-(3-chloro-6-pyridazinyl)hydrazone] | -25%
20 | CCOC(=O)C1CCCCC1=NNc1ccc(Cl)nn1 (centres unmarked) [Example 17, 2-(Ethoxycarbonyl)-1-cyclohexylidene-3-chloro-6-pyridazinylhydrazone] | -23%
21 | O=C(O)C1CCCCC1=NNc1cccnn1 (centres unmarked) [Example 19, 2-carboxy-1-cyclohexylidene-3-pyridazinylhydrazone] | -8%

Same assay, conditions: Rattus norvegicus; 24 hours, 50 mg/kg, oral; read-out: Reduction in blood pressure

Row | Molecule | change in vivo at 50 mg/kg
22 | CCOC(=O)CC(C)=NNc1ccc(Cl)nn1 [Example 20, 3-(Ethoxycarbonyl)-2-propylidene-(3-chloro-6-pyridazinyl)hydrazone] | -25%
23 | CCOC(=O)C1CCCCC1=NNc1ccc(Cl)nn1 (centres unmarked) [Example 17, 2-(Ethoxycarbonyl)-1-cyclohexylidene-3-chloro-6-pyridazinylhydrazone] | -13%
24 | O=C(O)C1CCCCC1=NNc1cccnn1 (centres unmarked) [Example 19, 2-carboxy-1-cyclohexylidene-3-pyridazinylhydrazone] | -9%

Same assay, conditions: ≥-15%

Row | Molecule | significant blood pressure lowering activity
25 | CCOC(=O)CC(C)=NNc1ccc(Cl)nn1 [Example 20, 3-(Ethoxycarbonyl)-2-propylidene-(3-chloro-6-pyridazinyl)hydrazone] | ≥ -15%
26 | CCOC(=O)C1CCCCC1=NNc1ccc(Cl)nn1 (centres unmarked) [Example 17, 2-(Ethoxycarbonyl)-1-cyclohexylidene-3-chloro-6-pyridazinylhydrazone] | ≥ -15%

From patent publication US4259328A, “Morpholino pyridazinylhydrazones” (Richter Gedeon Vegyeszeti Gyar Rt, priority 1977, dated 1981)
